Patent US20230392217A1 (priority 2020, published 2023)
Where two headings read alike, the source gives them in different places.

Experiments:
[1] = test system: SosA protein of Staphylococcus aureus; assay: SosA expression of Staphylococcus aureus according to concentration of ciprofloxacin, detected using SosA antibodies; format: cell-based; conditions: detected using the SosA antibody, FIG. 10
Protocol: Pellets of microorganisms were suspended with 1 ml of DPBS containing sosA-specific antibodies that were diluted at 1:2,000 and cultured overnight at 37° C., 180 rpm. Thereafter, centrifugation was performed at 13,000 rpm for 1 minute, secondary antibodies (anti-mouse FITC, Abcam) diluted at 1:500 were treated, and culture was performed at 37° C., 180 rpm for 3 hours. 100 ul of a sample was transferred to a 12-well plate containing an 18 mm cover glass and centrifuged at 1,100 rpm for 1 minute, and the bacteria were attached to a cover glass. The plates were washed three times with DPBS, and centrifugation was performed at 1,100 rpm for 1 minute. The cover glass was attached to the slide, and then imaging was performed using the Zeiss LSM 5 live confocal microscope. Images were acquired using Plan-Apochromat 63×1.4 NA objectives, and analysis was performed to detect GFP fluorescence by setting to 488 nm for excitation wavelength and 513±12 nm for emission wavelength.
In addition, each sample was transferred to a 96-well plate, and absorbance measurement and fluorescence analysis were performed using Ensight (PerkinElmer). In the case of green fluorescence, the excitation wavelength was at 488 nm and the emission wavelength was at 528 nm, and in the case of red fluorescence, the excitation wavelength was at 558 nm and the emission wavelength was at 615 nm. […]

[2] = test system: methicillin-sensitive S. aureus (MSSA); conditions: cited from earlier work
[3] = test system: methicillin-resistant S. aureus (MRSA); conditions: cited from earlier work

## O=C(O)c1cn(C2CC2)c2cc(N3CCNCC3)c(F)cc2c1=O [Ciprofloxacin, ciprofloxacin]
[1]
  expression of SosA: increases with the increase in the administration concentration
[2]; strain MSSA #1
  antibiotic susceptibility/resistance: Susceptible
[2]; strain MSSA #2
  antibiotic susceptibility/resistance: Susceptible
[2]; strain MSSA #3
  antibiotic susceptibility/resistance: Susceptible
[2]; strain MSSA #4
  antibiotic susceptibility/resistance: Susceptible
[2]; strain MSSA #5
  antibiotic susceptibility/resistance: Susceptible
[2]; strain MSSA #6
  antibiotic susceptibility/resistance: Susceptible
[2]; strain MSSA #7
  antibiotic susceptibility/resistance: Resistant
[2]; strain MSSA #8
  antibiotic susceptibility/resistance: Resistant
[2]; strain MSSA #9
  antibiotic susceptibility/resistance: Susceptible
[2]; strain MSSA #10
  antibiotic susceptibility/resistance: Susceptible
[2]; strain MSSA #11
  antibiotic susceptibility/resistance: Susceptible
[2]; strain MSSA #12
  antibiotic susceptibility/resistance: Susceptible
[2]; strain MSSA #13
  antibiotic susceptibility/resistance: Susceptible
[2]; strain MSSA #14
  antibiotic susceptibility/resistance: Susceptible
[2]; strain MSSA #15
  antibiotic susceptibility/resistance: Susceptible
[2]; strain MSSA #16
  antibiotic susceptibility/resistance: Susceptible
[2]; strain MSSA #17
  antibiotic susceptibility/resistance: Susceptible
[2]; strain MSSA #18
  antibiotic susceptibility/resistance: Susceptible
[2]; strain MSSA #19
  antibiotic susceptibility/resistance: Susceptible
[2]; strain MSSA #20
  antibiotic susceptibility/resistance: Resistant
[3]; strain MRSA #1
  antibiotic susceptibility/resistance: Resistant
[3]; strain MRSA #2
  antibiotic susceptibility/resistance: Resistant
[3]; strain MRSA #3
  antibiotic susceptibility/resistance: Susceptible
[3]; strain MRSA #4
  antibiotic susceptibility/resistance: Susceptible
[3]; strain MRSA #5
  antibiotic susceptibility/resistance: Resistant
[3]; strain MRSA #6
  antibiotic susceptibility/resistance: Resistant
[3]; strain MRSA #7
  antibiotic susceptibility/resistance: Resistant
[3]; strain MRSA #8
  antibiotic susceptibility/resistance: Resistant
[3]; strain MRSA #9
  antibiotic susceptibility/resistance: Resistant
[3]; strain MRSA #10
  antibiotic susceptibility/resistance: Resistant
[3]; strain MRSA #11
  antibiotic susceptibility/resistance: Resistant
[3]; strain MRSA #12
  antibiotic susceptibility/resistance: Resistant
[3]; strain MRSA #13
  antibiotic susceptibility/resistance: Resistant
[3]; strain MRSA #14
  antibiotic susceptibility/resistance: Resistant
[3]; strain MRSA #15
  antibiotic susceptibility/resistance: Resistant
[3]; strain MRSA #16
  antibiotic susceptibility/resistance: Resistant
[3]; strain MRSA #17
  antibiotic susceptibility/resistance: Resistant
[3]; strain MRSA #18
  antibiotic susceptibility/resistance: Susceptible
[3]; strain MRSA #19
  antibiotic susceptibility/resistance: Resistant
[3]; strain MRSA #20
  antibiotic susceptibility/resistance: Resistant
[3]; strain MRSA #21
  antibiotic susceptibility/resistance: Resistant
[3]; strain MRSA #22
  antibiotic susceptibility/resistance: Resistant
[3]; strain MRSA #23
  antibiotic susceptibility/resistance: Resistant
[3]; strain MRSA #24
  antibiotic susceptibility/resistance: Susceptible
[3]; strain MRSA #25
  antibiotic susceptibility/resistance: Resistant
[3]; strain MRSA #26
  antibiotic susceptibility/resistance: Susceptible
[3]; strain MRSA #27
  antibiotic susceptibility/resistance: Susceptible
[3]; strain MRSA #28
  antibiotic susceptibility/resistance: Resistant
[3]; strain MRSA #29
  antibiotic susceptibility/resistance: Resistant
[3]; strain MRSA #30
  antibiotic susceptibility/resistance: Resistant

## COc1cccc(OC)c1C(=O)N[C@@H]1C(=O)N2[C@@H]1SC(C)(C)[C@@H]2C(=O)O [Methicillin, methicillin]
[2]; strain MSSA #1
  antibiotic susceptibility/resistance: Susceptible
[2]; strain MSSA #2
  antibiotic susceptibility/resistance: Susceptible
[2]; strain MSSA #3
  antibiotic susceptibility/resistance: Susceptible
[2]; strain MSSA #4
  antibiotic susceptibility/resistance: Susceptible
[2]; strain MSSA #5
  antibiotic susceptibility/resistance: Susceptible
[2]; strain MSSA #6
  antibiotic susceptibility/resistance: Susceptible
[2]; strain MSSA #7
  antibiotic susceptibility/resistance: Susceptible
[2]; strain MSSA #8
  antibiotic susceptibility/resistance: Susceptible
[2]; strain MSSA #9
  antibiotic susceptibility/resistance: Susceptible
[2]; strain MSSA #10
  antibiotic susceptibility/resistance: Susceptible
[2]; strain MSSA #11
  antibiotic susceptibility/resistance: Susceptible
[2]; strain MSSA #12
  antibiotic susceptibility/resistance: Susceptible
[2]; strain MSSA #13
  antibiotic susceptibility/resistance: Susceptible
[2]; strain MSSA #14
  antibiotic susceptibility/resistance: Susceptible
[2]; strain MSSA #15
  antibiotic susceptibility/resistance: Susceptible
[2]; strain MSSA #16
  antibiotic susceptibility/resistance: Susceptible
[2]; strain MSSA #17
  antibiotic susceptibility/resistance: Susceptible
[2]; strain MSSA #18
  antibiotic susceptibility/resistance: Susceptible
[2]; strain MSSA #19
  antibiotic susceptibility/resistance: Susceptible
[2]; strain MSSA #20
  antibiotic susceptibility/resistance: Susceptible
[3]; strain MRSA #1
  antibiotic susceptibility/resistance: Resistant
[3]; strain MRSA #2
  antibiotic susceptibility/resistance: Resistant
[3]; strain MRSA #3
  antibiotic susceptibility/resistance: Resistant
[3]; strain MRSA #4
  antibiotic susceptibility/resistance: Resistant
[3]; strain MRSA #5
  antibiotic susceptibility/resistance: Resistant
[3]; strain MRSA #6
  antibiotic susceptibility/resistance: Resistant
[3]; strain MRSA #7
  antibiotic susceptibility/resistance: Resistant
[3]; strain MRSA #8
  antibiotic susceptibility/resistance: Resistant
[3]; strain MRSA #9
  antibiotic susceptibility/resistance: Resistant
[3]; strain MRSA #10
  antibiotic susceptibility/resistance: Resistant
[3]; strain MRSA #11
  antibiotic susceptibility/resistance: Resistant
[3]; strain MRSA #12
  antibiotic susceptibility/resistance: Resistant
[3]; strain MRSA #13
  antibiotic susceptibility/resistance: Resistant
[3]; strain MRSA #14
  antibiotic susceptibility/resistance: Resistant
[3]; strain MRSA #15
  antibiotic susceptibility/resistance: Resistant
[3]; strain MRSA #16
  antibiotic susceptibility/resistance: Resistant
[3]; strain MRSA #17
  antibiotic susceptibility/resistance: Resistant
[3]; strain MRSA #18
  antibiotic susceptibility/resistance: Resistant
[3]; strain MRSA #19
  antibiotic susceptibility/resistance: Resistant
[3]; strain MRSA #20
  antibiotic susceptibility/resistance: Resistant
[3]; strain MRSA #21
  antibiotic susceptibility/resistance: Resistant
[3]; strain MRSA #22
  antibiotic susceptibility/resistance: Resistant
[3]; strain MRSA #23
  antibiotic susceptibility/resistance: Resistant
[3]; strain MRSA #24
  antibiotic susceptibility/resistance: Susceptible
[3]; strain MRSA #25
  antibiotic susceptibility/resistance: Resistant
[3]; strain MRSA #26
  antibiotic susceptibility/resistance: Resistant
[3]; strain MRSA #27
  antibiotic susceptibility/resistance: Resistant
[3]; strain MRSA #28
  antibiotic susceptibility/resistance: Resistant
[3]; strain MRSA #29
  antibiotic susceptibility/resistance: Resistant
[3]; strain MRSA #30
  antibiotic susceptibility/resistance: Resistant

## CN[C@H](CC(C)C)C(=O)N[C@H]1C(=O)N[C@@H](CC(N)=O)C(=O)N[C@H]2C(=O)N[C@H]3C(=O)N[C@H](C(=O)N[C@H](C(=O)O)c4cc(O)cc(O)c4-c4cc3ccc4O)[C@H](O)c3ccc(c(Cl)c3)Oc3cc2cc(c3O[C@@H]2O[C@H](CO)[C@@H](O)[C@H](O)[C@H]2O[C@H]2C[C@](C)(N)[C@H](O)[C@H](C)O2)Oc2ccc(cc2Cl)[C@H]1O [Vancomycin, vancomycin]
[2]; strain MSSA #1
  antibiotic susceptibility/resistance: Susceptible
[2]; strain MSSA #2
  antibiotic susceptibility/resistance: Susceptible
[2]; strain MSSA #3
  antibiotic susceptibility/resistance: Susceptible
[2]; strain MSSA #4
  antibiotic susceptibility/resistance: Susceptible
[2]; strain MSSA #5
  antibiotic susceptibility/resistance: Susceptible
[2]; strain MSSA #6
  antibiotic susceptibility/resistance: Susceptible
[2]; strain MSSA #7
  antibiotic susceptibility/resistance: Susceptible
[2]; strain MSSA #8
  antibiotic susceptibility/resistance: Susceptible
[2]; strain MSSA #9
  antibiotic susceptibility/resistance: Susceptible
[2]; strain MSSA #10
  antibiotic susceptibility/resistance: Susceptible
[2]; strain MSSA #11
  antibiotic susceptibility/resistance: Susceptible
[2]; strain MSSA #12
  antibiotic susceptibility/resistance: Susceptible
[2]; strain MSSA #13
  antibiotic susceptibility/resistance: Susceptible
[2]; strain MSSA #14
  antibiotic susceptibility/resistance: Susceptible
[2]; strain MSSA #15
  antibiotic susceptibility/resistance: Susceptible
[2]; strain MSSA #16
  antibiotic susceptibility/resistance: Susceptible
[2]; strain MSSA #17
  antibiotic susceptibility/resistance: Susceptible
[2]; strain MSSA #18
  antibiotic susceptibility/resistance: Susceptible
[2]; strain MSSA #19
  antibiotic susceptibility/resistance: Susceptible
[2]; strain MSSA #20
  antibiotic susceptibility/resistance: Susceptible
[3]; strain MRSA #1
  antibiotic susceptibility/resistance: Susceptible
[3]; strain MRSA #2
  antibiotic susceptibility/resistance: Susceptible
[3]; strain MRSA #3
  antibiotic susceptibility/resistance: Susceptible
[3]; strain MRSA #4
  antibiotic susceptibility/resistance: Susceptible
[3]; strain MRSA #5
  antibiotic susceptibility/resistance: Susceptible
[3]; strain MRSA #6
  antibiotic susceptibility/resistance: Susceptible
[3]; strain MRSA #7
  antibiotic susceptibility/resistance: Susceptible
[3]; strain MRSA #8
  antibiotic susceptibility/resistance: Susceptible
[3]; strain MRSA #9
  antibiotic susceptibility/resistance: Susceptible
[3]; strain MRSA #10
  antibiotic susceptibility/resistance: Susceptible
[3]; strain MRSA #11
  antibiotic susceptibility/resistance: Susceptible
[3]; strain MRSA #12
  antibiotic susceptibility/resistance: Susceptible
[3]; strain MRSA #13
  antibiotic susceptibility/resistance: Susceptible
[3]; strain MRSA #14
  antibiotic susceptibility/resistance: Susceptible
[3]; strain MRSA #15
  antibiotic susceptibility/resistance: Susceptible
[3]; strain MRSA #16
  antibiotic susceptibility/resistance: Susceptible
[3]; strain MRSA #17
  antibiotic susceptibility/resistance: Susceptible
[3]; strain MRSA #18
  antibiotic susceptibility/resistance: Susceptible
[3]; strain MRSA #19
  antibiotic susceptibility/resistance: Susceptible
[3]; strain MRSA #20
  antibiotic susceptibility/resistance: Resistant
[3]; strain MRSA #21
  antibiotic susceptibility/resistance: Susceptible
[3]; strain MRSA #22
  antibiotic susceptibility/resistance: Susceptible
[3]; strain MRSA #23
  antibiotic susceptibility/resistance: Susceptible
[3]; strain MRSA #24
  antibiotic susceptibility/resistance: Susceptible
[3]; strain MRSA #25
  antibiotic susceptibility/resistance: Susceptible
[3]; strain MRSA #26
  antibiotic susceptibility/resistance: Susceptible
[3]; strain MRSA #27
  antibiotic susceptibility/resistance: Susceptible
[3]; strain MRSA #28
  antibiotic susceptibility/resistance: Susceptible
[3]; strain MRSA #29
  antibiotic susceptibility/resistance: Susceptible
[3]; strain MRSA #30
  antibiotic susceptibility/resistance: Resistant
